{
  "source": "patent US11547680B2",
  "about": "“Benzalkonium-embedded mesostructured silica compositions and uses of same” (RUTGERS, THE STATE UNIVERSITY OF NEW JERSEY, priority 2018, dated 2023)",
  "origin": "cited, not measured here",
  "details": "aqueous solution",
  "data": [
    {"substance": "benzalkonium chloride [BAC]", "values": [
      {"measurement": "critical micelle concentration (CMC)", "result": "ca. 0.5 mM"}
    ]}
  ]
}
